Source: BindingDB's records for doi:10.1021/acsmedchemlett.9b00625 (Rwth Aachen University, 2020)

Tests used:
[1] = Inhibition of BRD4 in human MOLM-14 cells harboring FLT3-ITD mutant assessed as decrease in metabolic activity measured after 72 hrs by MTT assay
[2] = Inhibition of BRD4 in human HEL cells harboring JAK2 V617F mutant assessed as decrease in metabolic activity measured after 72 hrs by MTT assay

Q: For `CN1Cc2cc(N=[S@@](C)(=O)c3ccccc3)ccc2NC1=O`, which IC50 [1] is on record?
A: 1000 nM

Q: What about the IC50 [2] of the same molecule?
A: 500 nM
